Source: patent publication EP3907227A1, “TRILOBINE DERIVATIVES AND THEIR USE THEREOF IN THE TREATMENT OF MALARIA” (Institut Pasteur, priority 2020, dated 2021)
Read-outs that look alike come from different tables or passages of the source.

Experiments:
[1] = system: Strain 5150; experiment: Inhibition of proliferation of multi-resistant field isolates, asynchronous asexual stages, SYBR-green assay; assay type: cell-based, P. falciparum; settings: Plasmodium falciparum, read-out: IC50 nM Strain 5150 mean*
Procedure: (§1) Compounds 63 and 84 were evaluated regarding the inhibition of the proliferation of multi-resistant field isolates adapted to culture. A panel of four Cambodian strains bearing different molecular markers of resistance were selected: 3D7: Laboratory strain, drug-sensitive, 5150: Cambodian isolate resistant to Chloroquine and Pyrimethamine, 6591: Cambodian isolate resistant to Chloroquine, Pyrimethamine, 5248: Cambodian isolate resistant to Chloroquine, Pyrimethamine, Mefloquine and Artemisinin, 6320: Cambodian isolate resistant to Chloroquine, Pyrimethamine, Piperaquine and Artemisinin.
(§2) IC50 were obtained against asynchronous asexual stages using SYBR-green assay after 72h of incubation with a serial dilution of the compounds. Data represents the mean and SD of 3 independent experiments ran in triplicates. Table 2 illustrates mean IC50 values and their standard deviation in nanomolar.

[2] = system: Strain 5248; experiment: as above; assay type: cell-based, P. falciparum; settings: Plasmodium falciparum, read-out: IC50 nM Strain 5248 mean*
Procedure: as §1, §2

[3] = system: Strain 6320; experiment: as above; assay type: cell-based, P. falciparum; settings: Plasmodium falciparum, read-out: IC50 nM Strain 6320 mean*
Procedure: as §1, §2

[4] = system: Strain 6591; experiment: as above; assay type: cell-based, P. falciparum; settings: Plasmodium falciparum, read-out: IC50 nM Strain 6591 mean*
Procedure: as §1, §2

[5] = system: Lab. Strain 3D7; experiment: Inhibition of proliferation, asynchronous asexual stages, SYBR-green assay, laboratory strain; assay type: cell-based, P. falciparum; settings: Plasmodium falciparum, read-out: IC50 nM Lab. Strain 3D7 mean*
Procedure: as §1, §2

[6] = system: P. falciparum NF54 (drug-sensitive line); experiment: Inhibition of proliferation of asynchronous asexual cultures (SYBR Green I based assay, 72h); assay type: cell-based; settings: for activity at 5 µM: first screen at 5µM in duplicate, 72h, NF54, read-out: % survival @5uM
Procedure: Compounds were provided at a concentration of 10 mM in DMSO.
P. falciparum parasite are cultured using standard protocol (Trager and Jensen, Science 1976, 193(4254), 673-675). Briefly, parasites are cultured at 4% hematocrit (O+ human blood, Etablissement Français du Sang, France) in RPMI1640 complemented with 0.1% Albumax I, HEPES buffer, hypoxanthine, and gentamycin. They are incubated at 37°C under an atmosphere of 5% CO2 and 5% O2.
Compounds of the invention were assayed for a first screen at 5µM in duplicate against asynchronous asexual cultures of P. falciparum NF54 (drug-sensitive line) containing mostly rings (2% hematocrit. 0.5% starting parasitemia). Plates were incubated for 72h at 37°C under a reduced oxygen atmosphere. Parasite growth was assessed using the SYBR Green I based assay.
IC50 were determined using Graphpad Prism 6 software. Dihydroartemisinin (starting concentration 50nM) and DMSO were used as positive and negative controls.

[7] = system: Parasites; experiment: Parasite reduction rate (time needed to kill the parasites); assay type: cell-based; settings: survival curves, duration of treatment versus log viable parasites, Figure 3
Procedure: Parasites are incubated (see for example Sanz et al. PLoS ONE 7, e30949 (2012)) with a compound of the invention (or a reference) for different time-windows, washed, and diluted serially in 96-well plates in fresh red blood cells. Parasites are kept in culture for 3 to 4 weeks, when growth is assessed to evaluate the number of parasites that survive-correlated to the number of wells where growth is found. Survival curves are obtained by plotting the duration of treatment versus the log of the number of viable parasites (figure 3).

[8] = Plasmodium falciparum, NF54, 72 h, SYBR Green I, read-out: Malaria CI50
[9] = Plasmodium falciparum, NF54, 72h, SYBR Green I, read-out: Malaria CI50

Row | IC50 [6, 8] [nM] | SMILES | activity at 5 µM ([6]; Plasmodium falciparum) [%] | also measured
1 | 297 ± 31 | CCN(CC)CCCNC(=O)N1CCc2cc3c4cc2C1Cc1ccc(OC)c(c1)Oc1ccc(cc1)CC1c2c(cc(OC)c(c2O4)O3)CCN1C (stereo not drawn) [Compound 88] | 14.7 | –
2 | 297 ± 42 | COc1cc2c3c4c1Oc1cc5c(cc1O4)C(Cc1ccc(OC4CCCN(C)CC4)c(c1)Oc1ccc(cc1)CC3N(C)CC2)N(C)CC5 (stereo not drawn) [Compound 74] | 14.7 | –
3 | 227 ± 59 | COc1ccc2cc1Oc1ccc(cc1)CC1c3c(cc(OC)c4c3Oc3cc5c(cc3O4)CCN(C(=O)NCCN3CCN(C)CC3)C5C2)CCN1C (stereo not drawn) [Compound 60] | 15.4 | –
4 | 189 | COc1cc2c3c4c1Oc1cc5c(cc1O4)C(Cc1ccc(OCCCN4CCN(C)CC4)c(c1)Oc1ccc(cc1)CC3N(C)CC2)N(C)CC5 (stereo not drawn) [Compound 68] | 14.8 | –
5 | 352 ± 54 | COc1cc2c3c4c1Oc1cc5c(cc1O4)C(Cc1ccc(OCCC4CCCN4C)c(c1)Oc1ccc(cc1)CC3N(C)CC2)N(C)CC5 (stereo not drawn) [Compound 75] | 14.9 | –
6 | 263 ± 50 | COc1cc2c3c4c1Oc1cc5c(cc1O4)C(Cc1ccc(OCCCN(C)C)c(c1)Oc1ccc(cc1)CC3NCC2)N(C)CC5 (stereo not drawn) [Compound 116] | – | –
7 | 153 ± 58 | CN(C)CCCOc1ccc2cc1Oc1ccc(cc1)CC1c3c(cc(O)c4c3Oc3cc5c(cc3O4)CCN(C)C5C2)CCN1C (stereo not drawn) [Compound 113] | – | –
8 | 428 ± 77 | CCN(CC)CCCNC(=O)N1CCc2cc(OC)c3c4c2C1Cc1ccc(cc1)Oc1cc(ccc1OC)CC1c2cc(c(cc2CCN1C)O3)O4 (stereo not drawn) [Compound 89] | 14.4 | –
9 | 283 ± 155 | CN(C)Cc1cc2cc(c1O)Oc1ccc(cc1)CC1c3c(c(CN(C)C)c(O)c4c3Oc3cc5c(cc3O4)CCN(C)C5C2)CCN1C (stereo not drawn) [Compound 123] | – | –
10 | 299 ± 25 | COc1cc2c3c4c1Oc1cc5c(cc1O4)C(Cc1ccc(OCC4CO4)c(c1)Oc1ccc(cc1)CC3N(C)CC2)N(C)CC5 (stereo not drawn) [Compound 73] | 15.8 | –
11 | 331 ± 29 | CCN(CC)CCOc1ccc2cc1Oc1ccc(cc1)CC1c3c(cc(OC)c4c3Oc3cc5c(cc3O4)CCN(C)C5C2)CCN1C (stereo not drawn) [Compound 78] | 12.6 | –
12 | 260 ± 34 | COc1cc2c3c4c1Oc1cc5c(cc1O4)C(Cc1ccc(OCCN(C)C)c(c1)Oc1ccc(cc1)CC3N(C)CC2)N(C)CC5 (stereo not drawn) [Compound 82] | 13.4 | –
13 | 441 ± 67 | CCN(CC)CCCNC(=O)N1CCc2cc3c4cc2C1Cc1ccc(OC)c(c1)Oc1ccc(cc1)CC1c2c(cc(OC)c(c2O4)O3)CCN1C(=O)NCCCN(CC)CC (stereo not drawn) [Compound 87] | 11.3 | –

The next lines start with the compound.

Row | SMILES | IC50 [6, 8] [nM] | activity at 5 µM ([6]; Plasmodium falciparum) [%] | also measured
14 | Clc1ccc2c(N3CCN(CCCN4CCN(c5ccnc6cc(Cl)ccc56)CC4)CC3)ccnc2c1 [Piperaquine] | – | – | IC50 ([1]; 72 h): 26 nM; IC50 ([2]; 72 h): 33 nM; IC50 ([3]; 72 h): > 200 nM; IC50 ([4]; 72 h): 34 nM; IC50 ([5]; 3D7, 72 h): 41 nM
15 | COc1ccc2cc1Oc1ccc(cc1)CC1c3c(cc(OC)c4c3Oc3cc5c(cc3O4)CCN(CCOCCOCCO)C5C2)CCN1C (stereo not drawn) [Compound 43] | 438 ± 95 | 13.3 | –
16 | CCN(CC)CCCC(C)Nc1ccnc2cc(Cl)ccc12 (stereo not drawn) [Chloroquine] | – | – | IC50 ([1]; 72 h): 55 nM; IC50 ([2]; 72 h): 98 nM; IC50 ([3]; 72 h): 109 nM; IC50 ([4]; 72 h): 64 nM; IC50 ([5]; 3D7, 72 h): 13 nM
17 | COc1ccc2cc1Oc1ccc(cc1)CC1c3c(cc(OC)c4c3Oc3cc5c(cc3O4)CCN(C)C5C2)CCN1CC(O)CO (stereo not drawn) [Compound 48] | 195 ± 55 | 11.8 | –
18 | CN1CCc2cc3c4cc2C1Cc1ccc(O)c(c1)Oc1ccc(cc1)CC1NCCc2cc(O)c(c(c21)O4)O3 (stereo not drawn) [Compound 122] | – | – | IC50 [6, 9]: 248 ± 58 nM
19 | COc1ccc2cc1Oc1ccc(cc1)CC1c3c(cc(OC)c4c3Oc3cc5c(cc3O4)CCN(C(=O)Nc3cccnc3)C5C2)CCN1C (stereo not drawn) [Compound 27] | 383 ± 173 | 12.7 | –
20 | CN1CCc2cc3c4cc2C1Cc1ccc(O)c(c1)Oc1ccc(cc1)CC1c2c(cc(O)c(c2O4)O3)CCN1C (stereo not drawn) [Compound 110] | – | – | IC50 [6, 9]: 146 ± 39 nM
21 | CCc1nc(N)nc(N)c1-c1ccc(Cl)cc1 [Pyrimethamine] | – | – | IC50 ([1]; 72h, Cambodian isolate resistant to Chloroquine and Pyrimethamine, mean of three replicates): > 5000 nM; IC50 ([2]; 72h, Cambodian isolate resistant to Chloroquine, Pyrimethamine, Mefloquine and Artemisinin, mean of three replicates): > 5000 nM; IC50 ([3]; 72h, Cambodian isolate resistant to Chloroquine, Pyrimethamine, Piperaquine and Artemisinin, mean of three replicates): > 5000 nM; IC50 ([4]; 72h, Cambodian isolate resistant to Chloroquine, Pyrimethamine, mean of three replicates): > 5000 nM; IC50 ([5]; 3D7, 72h, laboratory strain, drug-sensitive, mean of three replicates): 30 nM
22 | COc1ccc2cc1Oc1ccc(cc1)C[C@@H]1NCCc3cc(OC)c4c(c31)Oc1cc3c(cc1O4)CCN[C@H]3C2 [Nortrilobine, reference compound] | – | – | IC50 ([6]; same conditions as Table 1 (NF54, 72h), read-out: mean IC50 +/- SD): 1220 ± 130 nM
23 | COc1ccc2cc1Oc1ccc(cc1)CC1c3c(cc(OC)c4c3Oc3cc5c(cc3O4)CCN(C)C5C2)CCN1CCOCCOCCO (stereo not drawn) [Compound 42] | 437 ± 83 | 12.9 | –
24 | COc1ccc2cc1Oc1ccc(cc1)CC1c3c(cc(OC)c4c3Oc3cc5c(cc3O4)CCN(C)C5C2)CCN1C(=O)NCc1ccccc1 (stereo not drawn) [Compound 28] | 504 ± 134 | 14.4 | –
25 | COc1ccc2cc1Oc1ccc(cc1)C[C@H]1c3c(cc(OC)c4c3Oc3cc5c(cc3O4)CCN(C)[C@H]5C2)CCN1C [Isotrilobine, reference compound] | – | – | IC50 ([6]; Plasmodium falciparum, NF54, 72 h, same conditions as Table 1 (NF54, 72h), read-out: mean IC50 +/- SD): 1780 nM
26 | COc1ccc2cc1Oc1ccc(cc1)CC1c3c(cc(OC)c4c3Oc3cc5c(cc3O4)CCN(C)C5C2)CCN1CCCN(C)C (stereo not drawn) [Compound 46] | 169 ± 10 | 14.2 | –
27 | COc1ccc2cc1Oc1ccc(cc1)CC1c3c(cc(OC)c4c3Oc3cc5c(cc3O4)CCN(C(=O)NCc3ccncc3)C5C2)CCN1C (stereo not drawn) [Compound 31] | 151 ± 21 | 14.8 | –
28 | Oc1ccc2cc1Oc1ccc(cc1)CC1NCCc3cc(O)c4c(c31)Oc1cc3c(cc1O4)CCNC3C2 (stereo not drawn) [Compound 121] | – | – | IC50 [6, 9]: 115 ± 55 nM; Speed of action (parasite reduction rate) [7]: act as fast as dihydroartemisinin (DHA)
29 | COc1ccc2cc1Oc1ccc(cc1)CC1c3c(cc(OC)c4c3Oc3cc5c(cc3O4)CCN(C(=O)Nc3ccncc3)C5C2)CCN1C (stereo not drawn) [Compound 23] | 223 ± 58 | 13.4 | –
